Experimental data from patent US9555038B2, “Heterocycle-substituted tetracyclic compounds and methods of use thereof for the treatment of viral diseases” (Merck Sharp & Dohme Corp., priority 2013, dated 2017).
Where two headings read alike, the source gives them in different places.

Experiments:
HCV replicon 1A = assay: Cell-based HCV Replicon Assay A, replicon 1A
How it was run: (§1)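 Replicon cells seeded at 2000 cells/well with compound, 10 serial dilutions starting at 333.3 nM to 1.667 nM, 0.5% DMSO, 5% FBS, harvested on day 3. Replicon RNA measured by multiplex TaqMan RT-PCR with cyclophilin as endogenous control, quantified from standard curves of Ct vs log ng RNA.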

HCV replicon 1AY93H = assay: Cell-based HCV Replicon Assay A, replicon 1AY93H
How it was run: as §1

HCV replicon 2B = assay: Cell-based HCV Replicon Assay A, replicon 2B
How it was run: as §1

HCV replicon 1AQ30D = assay: Cell-based HCV Replicon Assay B, replicon 1AQ30D
How it was run: (§2)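 Replicon cells seeded in 5% FBS; compounds added 24 h later, then 3 days' incubation. Replicon RNA quantified by real-time RT-PCR with genotype-specific primers/probes (NS5B amplicon for 1b). EC50 = concentration raising CT by 1 over projected baseline.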

HCV replicon 1B = assay: Cell-based HCV Replicon Assay B, replicon 1B
How it was run: as §2

[1] = read-out: 1A Y93H IC50, replicon 1AY93H
[2] = Hepatitis C virus, read-out: 1A Q30D IC50 (nM), replicon 1AQ30D
[3] = Hepatitis C virus, read-out: 1A Y93H IC50 (nM), replicon 1AY93H
[4] = Hepatitis C virus, read-out: 2B IC50 (nM), replicon 2B
[5] = read-out: 1A Q30D IC50, replicon 1AQ30D

| SMILES | IC50 (HCV replicon 1A; Hepatitis C virus) [pM] | IC50 (HCV replicon 1AY93H; [1]) [nM] | IC50 (HCV replicon 2B; read-out: 2B IC50, replicon 2B) [nM] | IC50 (HCV replicon 1AQ30D; [2]) [nM] | IC50 (HCV replicon 1B; Hepatitis C virus) [pM] | IC50 (HCV replicon 1AY93H; [3]) [nM] | IC50 (HCV replicon 2B; [4]) [nM] | IC50 (HCV replicon 1AQ30D; [5]) [nM] | IC50 (HCV replicon 1A) [pM] | IC50 (HCV replicon 1B) [pM] |
| --- | --- | --- | --- | --- | --- | --- | --- | --- | --- | --- |
| CCc1ncc(C2Oc3cc(-c4cnc([C@@H]5CCCN5C(=O)[C@@H](NC(=O)OC)C(C)C)[nH]4)cc(F)c3-c3cc4cc(-c5cnc([C@@H]6C[C@H]7C[C@H]7N6C(=O)[C@@H](CC(=O)OC)C(C)C)[nH]5)ccc4n32)s1 (single isomer, unassigned) [Compound 83] | 3 | 0.0067 | 0.048 | 0.12 | 3 |  |  |  |  |  |
| COC(=O)N[C@H](C(=O)N1CCC[C@H]1c1ncc(-c2cc(F)c3c(c2)OC(c2nc4c(s2)CCCC4)n2c-3cc3cc(-c4cnc([C@@H]5CCCN5C(=O)[C@@H](NC(=O)OC)C(C)C)[nH]4)ccc32)[nH]1)C(C)C (single isomer, unassigned) [Compound 87] | 2.5 |  |  |  | 864 | 0.0714 | 0.003 | 0.068 |  |  |
| COC(=O)N[C@H](C(=O)N1CCC[C@H]1c1ncc(-c2cc(F)c3c(c2)OC(c2cnc(C(C)C)s2)n2c-3cc3cc(-c4cnc([C@@H]5C[C@H]6C[C@H]6N5C(=O)[C@@H](NC(=O)OC)C(C)C)[nH]4)ccc32)[nH]1)C(C)C (single isomer, unassigned) [Compound 89] | 1.7 |  |  | 0.081 | 3 | 0.0028 | 0.029 |  |  |  |
| CCCc1ncc(C2Oc3cc(-c4cnc([C@@H]5CCCN5C(=O)[C@@H](NC(=O)OC)C(C)C)[nH]4)cc(F)c3-c3cc4cc(-c5cnc([C@@H]6C[C@H]7C[C@H]7N6C(=O)[C@@H](NC(=O)OC)C(C)C)[nH]5)ccc4n32)s1 (single isomer, unassigned) [Compound 90] | 2.5 | 0.0038 | 0.018 | 0.09 | 3 |  |  |  |  |  |
| CCc1ncc(C2Oc3cc(-c4cnc([C@@H]5CCCN5C(=O)[C@@H](NC(=O)OC)C(C)C)[nH]4)cc(F)c3-c3cc4cc(-c5cnc([C@@H]6C[C@H]7C[C@H]7N6C(=O)C(NC(=O)OC)C6CCOC(C)(C)C6)[nH]5)ccc4n32)s1 (single isomer, unassigned) [Compound 92] | 3.7 | 0.0045 | 0.005 |  | 6 |  |  | 0.064 |  |  |
| CCc1ncc(C2Oc3cc(-c4cnc([C@@H]5CCCN5C(=O)[C@@H](NC(=O)OC)C(C)C)[nH]4)cc(F)c3-c3cc4cc(-c5cnc([C@@H]6C[C@H]7C[C@H]7N6C(=O)C(NC(=O)OC)C6CCOC(C)(C)C6)[nH]5)ccc4n32)s1 (single isomer, unassigned) [Compound 93] |  | 0.0426 | 0.069 |  |  |  |  | 0.631 | 3.6 | 3 |
| CCc1ncc(C2Oc3cc(-c4cnc([C@@H]5CCCN5C(=O)[C@@H](NC(=O)OC)C(C)C)[nH]4)cc(F)c3-c3cc4cc(-c5cnc([C@@H]6C[C@H]7C[C@H]7N6C(=O)C(NC(=O)OC)C6CCOC(C)(C)C6)[nH]5)ccc4n32)s1 (single isomer, unassigned) [Compound 94] |  | 0.0035 | 0.004 |  |  |  |  | 0.045 | 3 | 3 |
| CCc1ncc(C2Oc3cc(-c4cnc([C@@H]5CCCN5C(=O)[C@@H](NC(=O)OC)C(C)C)[nH]4)cc(F)c3-c3cc4cc(-c5cnc([C@@H]6C[C@H]7C[C@H]7N6C(=O)C(NC(=O)OC)C6CCOC(C)(C)C6)[nH]5)ccc4n32)s1 (single isomer, unassigned) [Compound 95] |  | 0.0369 | 0.085 |  |  |  |  | 0.328 | 2.9 | 5 |
| CCc1ncc(C2Oc3cc(-c4cnc([C@@H]5CCCN5C(=O)[C@@H](NC(=O)OC)C(C)C)[nH]4)cc(F)c3-c3cc4cc(-c5cnc([C@@H]6C[C@H]7C[C@H]7N6C(=O)[C@@H](NC(=O)OC)C6C[C@@H](C)O[C@@H](C)C6)[nH]5)ccc4n32)s1 (single isomer, unassigned) [Compound 96] | 2.4 | 0.0037 | 0.006 |  | 3 |  |  | 0.02 |  |  |
| CCc1ncc(C2Oc3cc(-c4cnc([C@@H]5CCCN5C(=O)[C@@H](NC(=O)OC)C(C)C)[nH]4)cc(F)c3-c3cc4cc(-c5cnc([C@@H]6C[C@H]7C[C@H]7N6C(=O)[C@@H](NC(=O)OC)C6C[C@@H](C)O[C@@H](C)C6)[nH]5)ccc4n32)s1 (single isomer, unassigned) [Compound 97] |  | 0.0278 | 0.098 |  |  |  |  | 0.287 | 2.5 | 3 |
| CCCc1ncc(C2Oc3cc(-c4cnc([C@@H]5CCCN5C(=O)[C@@H](NC(=O)OC)C(C)C)[nH]4)cc(F)c3-c3cc4cc(-c5cnc([C@@H]6C[C@H]7C[C@H]7N6C(=O)C(NC(=O)OC)C6CCOC(C)(C)C6)[nH]5)ccc4n32)s1 (single isomer, unassigned) [Compound 104] | 2.8 | 0.0041 | 0.004 |  | 3 |  |  | 0.028 |  |  |
| CCCc1ncc(C2Oc3cc(-c4cnc([C@@H]5CCCN5C(=O)[C@@H](NC(=O)OC)C(C)C)[nH]4)cc(F)c3-c3cc4cc(-c5cnc([C@@H]6C[C@H]7C[C@H]7N6C(=O)C(NC(=O)OC)C6CCOC(C)(C)C6)[nH]5)ccc4n32)s1 (single isomer, unassigned) [Compound 106] |  | 0.0336 | 0.067 |  |  |  |  | 0.284 | 3.2 | 5 |
| CCCc1ncc(C2Oc3cc(-c4cnc([C@@H]5CCCN5C(=O)[C@@H](NC(=O)OC)C(C)C)[nH]4)cc(F)c3-c3cc4cc(-c5cnc([C@@H]6C[C@H]7C[C@H]7N6C(=O)C(NC(=O)OC)C6CCOC(C)(C)C6)[nH]5)ccc4n32)s1 (single isomer, unassigned) [Compound 107] |  | 0.0292 | 0.017 |  |  |  |  | 0.233 | 2.6 | 4 |
| CCCc1ncc(C2Oc3cc(-c4cnc([C@@H]5CCCN5C(=O)[C@@H](NC(=O)OC)C(C)C)[nH]4)cc(F)c3-c3cc4cc(-c5cnc([C@@H]6C[C@H]7C[C@H]7N6C(=O)C(NC(=O)OC)C6C[C@@H](C)O[C@@H](C)C6)[nH]5)ccc4n32)s1 (single isomer, unassigned) [Compound 108] | 2.8 | 0.0033 | 0.007 |  | 4 |  |  | 0.016 |  |  |
| CCCc1ncc(C2Oc3cc(-c4cnc([C@@H]5CCCN5C(=O)[C@@H](NC(=O)OC)C(C)C)[nH]4)cc(F)c3-c3cc4cc(-c5cnc([C@@H]6C[C@H]7C[C@H]7N6C(=O)C(NC(=O)OC)C6C[C@@H](C)O[C@@H](C)C6)[nH]5)ccc4n32)s1 (single isomer, unassigned) [Compound 109] |  | 0.0303 | 0.069 |  |  |  |  | 0.176 | 3.4 | 4 |
| COC(=O)NC(C(=O)N1[C@@H]2C[C@@H]2C[C@H]1c1ncc(-c2ccc3c(c2)cc2n3C(c3cnc(C4CC4)s3)Oc3cc(-c4cnc([C@@H]5CC6CC6N5C(=O)[C@@H](NC(=O)OC)C(C)C)[nH]4)cc(F)c3-2)[nH]1)C1CCOC(C)(C)C1 (single isomer, unassigned) [Compound 110] | 3.3 |  |  | 0.027 | 4 | 0.003 | 0.007 |  |  |  |
| COC(=O)NC(C(=O)N1[C@@H]2C[C@@H]2C[C@H]1c1ncc(-c2ccc3c(c2)c(F)c2n3C(c3cnc(C4CC4)s3)Oc3cc(-c4cnc([C@@H]5CCCN5C(=O)[C@@H](NC(=O)OC)C(C)C)[nH]4)cc(F)c3-2)[nH]1)C1CCOC(C)(C)C1 (single isomer, unassigned) [Compound 112] | 1.9 | 0.0044 | 0.004 | 0.036 | 3 |  |  |  |  |  |
| COC(=O)N[C@H](C(=O)N1CCC[C@H]1c1ncc(-c2cc(C)c3c(c2)OC(c2cnc(C4CC4)s2)n2c-3cc3cc(-c4cnc([C@@H]5CCCN5C(=O)[C@@H](NC(=O)OC)C(C)C)[nH]4)ccc32)[nH]1)C(C)C (single isomer, unassigned) [Compound 200] | 4.9 |  |  | 0.961 | 3 | 0.0796 | 0.014 |  |  |  |
